Reference: patent US20120238562A1, “TREATMENT OF CANCER BY TARGETING MOLECULES THAT INFLUENCE MST1/STK4 SIGNALING” (CEDARS-SINAI MEDICAL CENTER, priority 2011, published 2012)
“Also recorded” adds a separate entry of the source.

Assays:
Format in all cases: cell-based, human
Akt = Akt activation in C4-2 cells under mTOR inhibition; conditions: castration-resistant prostate cancer cells (C4-2), same conditions as Mst1-T120 hyper-phosphorylation
Description: A) Schematic representation of the GST-Mst1 peptide with wild type (wt) T120 or T120A mutations. B) In vitro kinase assay with bacterially expressed and purified GST-only, GST-Mst1-T120 wt, or GST-Mst1-T120A mutant peptide and the recombinant pre-activated Akt kinase. Western blots were probed with pMst1-T120 antibody. Ponceau S stained purified GST, GST-Mst1-T120, or GST-Mst1-T120A mutant peptide. C) LNCaP cells were treated with DMSO (vehicle) control, a specific PI3K inhibitor, LY294002 (20 μM), or mTOR inhibitor, Ku0063794 (1 μM) in serum-starved conditions. D) C4-2 cells were treated with Temsirolimus (CCI-779), an mTORC1 inhibitor (1 μM) in addition to DMSO, LY294002 and Ku0063794 under the same experimental conditions as in “C”. E) C4-2 cells treated with DMSO or LY294002 and CCI-779. Control/DMSO or drug treatment in “C,” “D,” or “E” was performed under serum-deprived conditions. Western blots were probed with antibodies to corresponding proteins at 3 h post treatment. Lam-A/C:Lamin-A/C. Data are representative of multiple experiments.
Consistent with this finding, PI3K and mTORC1 inhibition combined synergistically to prevent the proliferation of C4-2 cells compared to a single agent (FIG. 3B). […]

C4-2 cells = test: Cell proliferation by MTS assay, C4-2 cells; conditions: for C4-2 cell growth / proliferation vs control (MTS, A490 nm): 48 h post treatment, vs DMSO, Ku0063794 1 μM, rapamycin 1 μM (p<0.1), BEZ-235 0.5 μM (p<0.002)
Description: A, B) LNCaP (A) or C4-2 (B) cells were treated with control (DMSO), LY294002 (20 μM), Ku0063794 (1 μM), rapamycin (1 μM), LY294002+Ku0063794, or LY294002+Rapamycin. C) C4-2 cells were treated with DMSO or the dual PI3K and mTOR inhibitor, BEZ-235 (0.5 μM). Control or drug treatments were performed in T-medium supplemented with 5% FBS and 1% Pen/Strep. Cell proliferation was determined by MTS assay (A490 nm) at 48 h post treatment. D) Levels of endogenous total Mst1 by western blot in cytoplasmic (C) and nuclear (N) fractions from C4-2 cells that were transfected with scramble or Mst1 specific SiRNa. B-actin was used as a loading control. E) Effects of DMSO or CCI-779 on C4-2 cell proliferation with scramble or MSt1 knockdown conditions. Cell proliferation was determined by MTS (A490 nm) at 72 h post transfection. Data are representative of multiple experiments.
Cell proliferation was measured using CellTiter 96 AQueous with MTS reagent (Promega, Madison, Wis.). Briefly, cells in RPMI-medium plus 10% fetal bovine serum were added to 96-well plates at 4,000 cells per well in quadruplicate. After 24 h, LY290042, Ku0063794, Rapamycin, CCI-779 or BEZ-235 alone or combined were added, and cells were cultured for the indicated time. DMSO was used as a control. At 24 h post siRNA transfection, cells were treated with DMSO control or CCI-779 and incubated up to 72 h. MTS and phenazine methosulfate solution (20 μL/well) was added and the absorbance at 490 nm was recorded using a microplate reader (BMG Labtech; Cary, N.C.). For the clonogenic assay, 500 cells per well were seeded and cultured in 6-well plates for a week in the presence of Dox (0.5 μg/mL) in serum-fed conditions. The medium was changed every 3 days. Colonies were fixed with formaldehyde (4% v/v) and stained with crystal violet (0.5%). Representative views from triplicate experiments were photographed and quantified. […] After 14 days, colonies were photographed and quantified. […]

[1] = tested on: Mst1-T120 phosphorylation; test: Western blot of Mst1-T120 phosphorylation in cytoplasmic and nuclear fractions of C4-2 cells; conditions: serum-deprived, 3 h post treatment, vs DMSO control, LY294002 20 μM, Ku0063794 1 μM, CCI-779 1 μM
Description: (§1) A) Schematic representation of the GST-Mst1 peptide with wild type (wt) T120 or T120A mutations. B) In vitro kinase assay with bacterially expressed and purified GST-only, GST-Mst1-T120 wt, or GST-Mst1-T120A mutant peptide and the recombinant pre-activated Akt kinase. Western blots were probed with pMst1-T120 antibody. Ponceau S stained purified GST, GST-Mst1-T120, or GST-Mst1-T120A mutant peptide. C) LNCaP cells were treated with DMSO (vehicle) control, a specific PI3K inhibitor, LY294002 (20 μM), or mTOR inhibitor, Ku0063794 (1 μM) in serum-starved conditions. […]
(§2) A nuclear extraction kit according to the manufacturer's protocol (Affymetrix, Santa Clara, Calif.) was used to isolate cytoplasmic and nuclear fractions. […] Protein concentrations were determined by the Lowry method (Bio-Rad, Hercules, Calif.). […] Signals were detected using SuperSignal West Pico Chemiluminescence Substrate (Thermo Scientific, Roxford, Ill.).
(§3) The inventors generated GST-Mst1 peptide with T120-wt or T120A mutations (FIG. 2A). […] The inventors then assessed the effects of PI3K-Akt inhibition on Mst1-T120 phosphorylation in its respective location in the cell. […] The levels of phospho-Mst1-T120 were assessed by western blot in cytoplasmic and nuclear fractions. […]

Mst1 = test: Western blot of Mst1 nuclear accumulation in C4-2 cells; conditions: Ku0063794 1 μM or CCI-779 1 μM, 3 h post treatment
Description: A) Schematic representation of the GST-Mst1 peptide with wild type (wt) T120 or T120A mutations. B) In vitro kinase assay with bacterially expressed and purified GST-only, GST-Mst1-T120 wt, or GST-Mst1-T120A mutant peptide and the recombinant pre-activated Akt kinase. Western blots were probed with pMst1-T120 antibody. Ponceau S stained purified GST, GST-Mst1-T120, or GST-Mst1-T120A mutant peptide. C) LNCaP cells were treated with DMSO (vehicle) control, a specific PI3K inhibitor, LY294002 (20 μM), or mTOR inhibitor, Ku0063794 (1 μM) in serum-starved conditions. D) C4-2 cells were treated with Temsirolimus (CCI-779), an mTORC1 inhibitor (1 μM) in addition to DMSO, LY294002 and Ku0063794 under the same experimental conditions as in “C”. E) C4-2 cells treated with DMSO or LY294002 and CCI-779. Control/DMSO or drug treatment in “C,” “D,” or “E” was performed under serum-deprived conditions. Western blots were probed with antibodies to corresponding proteins at 3 h post treatment. Lam-A/C:Lamin-A/C. […]
as §2, with “Ill.). […]” for “Ill.).”

[2] = tested on: Mst1-T120 phosphorylation; test: Western blot of Mst1-T120 phosphorylation in cytoplasmic and nuclear fractions of LNCaP cells; conditions: serum-starved, 3 h post treatment, vs DMSO control, LY294002 20 μM, Ku0063794 1 μM
Description: as §1, §2, §3

[3] = tested on: Mst1-T183 phosphorylation; test: Mst1-T183 phosphorylation in treated prostate cancer cells; conditions: prostate cancer cells treated with inhibitor
Description: However, the levels of […] phosphorylation were unchanged when cells were treated with a potent mTOR inhibitor, Ku0063794, (FIG. 3). […] Based on these observations, the inventors therefore conclude that Mst1-phosphorylation at T120 or at […] are unrelated events or is modulated by different mechanisms, at least in prostate cancer cells.

| Compound | Akt activation (Akt) | C4-2 cell growth / proliferation vs control (MTS, A490 nm) (C4-2 cells) | Mst1-T120 phosphorylation [1] | Mst1 nuclear accumulation (Mst1) | Mst1-T120 phosphorylation in cell nuclei [2] | Mst1-T183 phosphorylation [3] | C4-2 cell proliferation under Mst1 knockdown vs scramble siRNA (MTS, A490 nm) (C4-2 cells; Mst1 siRNA vs scramble siRNA, CCI-779 vs DMSO, 72 h post transfection) |
| --- | --- | --- | --- | --- | --- | --- | --- |
| COc1ccc(-c2ccc3c(N4CCOCC4)nc(N4C[C@@H](C)O[C@@H](C)C4)nc3n2)cc1CO [Ku0063794] | did not observe Akt activation | failed to significantly inhibit | hyper-phosphorylation; also recorded: hyperphosphorylation | increase | unable to prevent | unchanged | – |
| CO[C@H]1C[C@@H]2CC[C@@H](C)[C@@](O)(O2)C(=O)C(=O)N2CCCC[C@H]2C(=O)O[C@H]([C@H](C)C[C@@H]2CC[C@@H](OC(=O)C(C)(CO)CO)[C@H](OC)C2)CC(=O)[C@H](C)/C=C(\C)[C@@H](O)[C@@H](OC)C(=O)[C@H](C)C[C@H](C)/C=C/C=C/C=C/1C [CCI-779, temsirolimus] | did not observe Akt activation | – | hyper-phosphorylation; also recorded: hyperphosphorylation | increase | – | – | sensitized |
| Cn1c(=O)n(-c2ccc(C(C)(C)C#N)cc2)c2c3cc(-c4cnc5ccccc5c4)ccc3ncc21 [BEZ-235] | – | significantly inhibited | – | – | – | – | – |
